Test results reported in ChEMBL document CHEMBL5465560, “Selectivity Literature for EUbOPEN Chemogenomic Library” (2024).
One block for each compound: values may come before it.

What was measured:
[1] = system: Hepatocyte growth factor receptor (Homo sapiens), P08581 [Y1235D]; conditions: at 10 µM
[2] = biological target: Substance-P receptor (Homo sapiens) (UniProt P25103); test: Selectivity interaction (Eurofins CEREP Diversity Profile (receptors and ion channels)) EUB0000279b TACR1; conditions: at 10 µM
[3] = biological target: Phosphatidylinositol 4-phosphate 5-kinase type-1 gamma (Homo sapiens) (UniProt O60331); test: Selectivity interaction (ProQinase) EUB0000171b PIP5K1C; conditions: at 1 µM
[4] = biological target: T1, cGMP-dependent protein kinase 2 (Homo sapiens) (UniProt Q13237); test: Selectivity interaction (KinomeScan (DiscoverX)) EUB0000092b PRKG2; conditions: at 10 µM
T1 sequence (whole entry): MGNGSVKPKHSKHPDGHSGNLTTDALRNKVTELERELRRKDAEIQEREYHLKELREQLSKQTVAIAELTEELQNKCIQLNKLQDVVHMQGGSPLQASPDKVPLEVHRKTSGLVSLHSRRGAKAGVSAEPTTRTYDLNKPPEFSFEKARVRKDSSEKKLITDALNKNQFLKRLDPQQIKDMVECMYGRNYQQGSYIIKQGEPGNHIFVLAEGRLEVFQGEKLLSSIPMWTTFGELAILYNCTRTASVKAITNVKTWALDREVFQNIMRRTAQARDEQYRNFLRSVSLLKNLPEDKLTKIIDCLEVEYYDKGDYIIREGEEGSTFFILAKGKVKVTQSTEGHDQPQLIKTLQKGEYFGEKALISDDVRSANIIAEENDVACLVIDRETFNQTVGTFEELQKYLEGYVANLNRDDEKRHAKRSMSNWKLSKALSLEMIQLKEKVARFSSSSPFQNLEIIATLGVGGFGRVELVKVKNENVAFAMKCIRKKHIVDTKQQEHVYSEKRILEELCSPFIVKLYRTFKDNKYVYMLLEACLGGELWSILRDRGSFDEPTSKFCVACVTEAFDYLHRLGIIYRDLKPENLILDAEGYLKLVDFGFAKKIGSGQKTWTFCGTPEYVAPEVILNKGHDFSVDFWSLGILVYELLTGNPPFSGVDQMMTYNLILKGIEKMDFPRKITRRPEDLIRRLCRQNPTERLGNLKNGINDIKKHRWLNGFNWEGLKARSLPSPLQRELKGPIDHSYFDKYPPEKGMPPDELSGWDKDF

[5] = biological target: T2, Inhibitor of nuclear factor kappa-B kinase subunit beta (Homo sapiens) (UniProt O14920); test: Selectivity interaction (KinomeScan (DiscoverX)) EUB0000045b IKBKB
T2 sequence (whole entry): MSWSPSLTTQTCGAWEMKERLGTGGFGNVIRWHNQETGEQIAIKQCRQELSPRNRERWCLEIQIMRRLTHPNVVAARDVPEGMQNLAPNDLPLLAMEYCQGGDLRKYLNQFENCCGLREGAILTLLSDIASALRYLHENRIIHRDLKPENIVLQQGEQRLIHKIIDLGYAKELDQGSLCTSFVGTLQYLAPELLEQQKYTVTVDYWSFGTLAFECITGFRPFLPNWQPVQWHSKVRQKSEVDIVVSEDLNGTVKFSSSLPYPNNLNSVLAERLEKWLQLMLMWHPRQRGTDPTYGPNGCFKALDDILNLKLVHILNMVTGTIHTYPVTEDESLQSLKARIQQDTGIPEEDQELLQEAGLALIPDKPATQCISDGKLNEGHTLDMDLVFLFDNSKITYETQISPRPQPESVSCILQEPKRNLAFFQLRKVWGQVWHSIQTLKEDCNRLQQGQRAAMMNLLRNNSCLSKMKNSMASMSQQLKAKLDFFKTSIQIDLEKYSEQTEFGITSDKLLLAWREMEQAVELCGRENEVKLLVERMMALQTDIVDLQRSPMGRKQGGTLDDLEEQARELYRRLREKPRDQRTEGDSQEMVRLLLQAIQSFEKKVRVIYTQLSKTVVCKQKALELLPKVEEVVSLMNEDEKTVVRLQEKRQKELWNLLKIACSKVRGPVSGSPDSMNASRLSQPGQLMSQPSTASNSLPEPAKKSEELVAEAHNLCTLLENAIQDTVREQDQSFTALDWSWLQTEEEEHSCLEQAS

[6] = biological target: Serine/threonine-protein kinase pim-3 (Homo sapiens) (UniProt Q86V86); test: Selectivity interaction (KinomeScan (DiscoverX)) EUB0000618a PIM3; conditions: at 10 µM
Adenosine receptor A2a = Adenosine receptor A2a (Homo sapiens, UniProt P29274); test: Selectivity interaction (Safety Panel 44tm (Eurofins)) EUB0000162b ADORA2A; conditions: at 10 µM
[7] = biological target: T3, Serine/threonine-protein kinase PLK4 (Homo sapiens) (UniProt O00444); test: Selectivity interaction (Kinase panel (DSF assay)) EUB0001559a PLK4
T3 sequence (whole entry): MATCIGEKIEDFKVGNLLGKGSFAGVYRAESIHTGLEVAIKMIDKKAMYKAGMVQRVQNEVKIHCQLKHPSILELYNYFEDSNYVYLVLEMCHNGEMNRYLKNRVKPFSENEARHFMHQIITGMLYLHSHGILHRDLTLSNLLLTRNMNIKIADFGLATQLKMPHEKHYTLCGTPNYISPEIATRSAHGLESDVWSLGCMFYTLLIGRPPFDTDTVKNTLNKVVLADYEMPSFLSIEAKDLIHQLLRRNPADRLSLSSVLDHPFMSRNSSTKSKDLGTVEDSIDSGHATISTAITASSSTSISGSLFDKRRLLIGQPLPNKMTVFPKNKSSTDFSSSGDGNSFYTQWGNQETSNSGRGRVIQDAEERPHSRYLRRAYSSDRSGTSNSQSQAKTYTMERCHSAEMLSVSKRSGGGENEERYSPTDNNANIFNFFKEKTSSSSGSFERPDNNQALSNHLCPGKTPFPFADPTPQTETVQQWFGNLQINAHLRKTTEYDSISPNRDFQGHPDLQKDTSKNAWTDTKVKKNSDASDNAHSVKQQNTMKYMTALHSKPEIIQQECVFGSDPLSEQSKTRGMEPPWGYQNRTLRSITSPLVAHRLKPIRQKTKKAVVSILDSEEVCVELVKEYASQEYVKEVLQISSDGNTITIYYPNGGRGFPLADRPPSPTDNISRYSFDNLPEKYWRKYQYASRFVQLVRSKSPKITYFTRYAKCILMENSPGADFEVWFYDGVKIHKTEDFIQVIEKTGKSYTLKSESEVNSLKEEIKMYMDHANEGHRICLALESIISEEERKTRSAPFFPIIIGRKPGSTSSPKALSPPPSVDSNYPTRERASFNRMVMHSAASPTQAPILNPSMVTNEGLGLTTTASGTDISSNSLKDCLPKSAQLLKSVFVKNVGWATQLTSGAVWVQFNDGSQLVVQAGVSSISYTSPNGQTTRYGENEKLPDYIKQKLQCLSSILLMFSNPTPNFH

[8] = biological target: Serine/threonine-protein kinase B-raf (Homo sapiens) (UniProt P15056); test: Selectivity interaction (Kinase panel (DSF assay)) EUB0001558a BRAF
Chain of Serine/threonine-protein kinase B-raf (Homo sapiens) (P15056 whole entry): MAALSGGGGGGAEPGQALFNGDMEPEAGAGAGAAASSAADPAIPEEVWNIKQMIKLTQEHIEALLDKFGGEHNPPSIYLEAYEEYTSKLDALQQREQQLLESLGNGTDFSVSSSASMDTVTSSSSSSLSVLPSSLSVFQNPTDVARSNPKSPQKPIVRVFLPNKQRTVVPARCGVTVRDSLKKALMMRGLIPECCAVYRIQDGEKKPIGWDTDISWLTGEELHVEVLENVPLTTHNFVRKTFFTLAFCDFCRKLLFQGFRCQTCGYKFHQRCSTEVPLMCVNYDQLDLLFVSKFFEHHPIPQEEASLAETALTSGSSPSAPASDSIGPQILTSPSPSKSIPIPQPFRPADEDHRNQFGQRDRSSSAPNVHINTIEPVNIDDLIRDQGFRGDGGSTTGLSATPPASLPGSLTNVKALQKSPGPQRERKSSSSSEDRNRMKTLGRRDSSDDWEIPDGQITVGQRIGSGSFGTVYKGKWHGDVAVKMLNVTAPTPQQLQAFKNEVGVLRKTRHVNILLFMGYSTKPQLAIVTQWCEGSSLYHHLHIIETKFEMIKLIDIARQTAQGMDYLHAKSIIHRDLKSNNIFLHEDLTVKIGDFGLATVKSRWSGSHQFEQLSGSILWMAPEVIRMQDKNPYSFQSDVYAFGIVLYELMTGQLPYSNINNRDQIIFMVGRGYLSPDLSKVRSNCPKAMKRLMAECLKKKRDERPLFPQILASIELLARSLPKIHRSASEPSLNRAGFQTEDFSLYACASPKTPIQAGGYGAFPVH

Chain of Hepatocyte growth factor receptor (Homo sapiens), P08581 [Y1235D] (P08581 whole entry Y1235D): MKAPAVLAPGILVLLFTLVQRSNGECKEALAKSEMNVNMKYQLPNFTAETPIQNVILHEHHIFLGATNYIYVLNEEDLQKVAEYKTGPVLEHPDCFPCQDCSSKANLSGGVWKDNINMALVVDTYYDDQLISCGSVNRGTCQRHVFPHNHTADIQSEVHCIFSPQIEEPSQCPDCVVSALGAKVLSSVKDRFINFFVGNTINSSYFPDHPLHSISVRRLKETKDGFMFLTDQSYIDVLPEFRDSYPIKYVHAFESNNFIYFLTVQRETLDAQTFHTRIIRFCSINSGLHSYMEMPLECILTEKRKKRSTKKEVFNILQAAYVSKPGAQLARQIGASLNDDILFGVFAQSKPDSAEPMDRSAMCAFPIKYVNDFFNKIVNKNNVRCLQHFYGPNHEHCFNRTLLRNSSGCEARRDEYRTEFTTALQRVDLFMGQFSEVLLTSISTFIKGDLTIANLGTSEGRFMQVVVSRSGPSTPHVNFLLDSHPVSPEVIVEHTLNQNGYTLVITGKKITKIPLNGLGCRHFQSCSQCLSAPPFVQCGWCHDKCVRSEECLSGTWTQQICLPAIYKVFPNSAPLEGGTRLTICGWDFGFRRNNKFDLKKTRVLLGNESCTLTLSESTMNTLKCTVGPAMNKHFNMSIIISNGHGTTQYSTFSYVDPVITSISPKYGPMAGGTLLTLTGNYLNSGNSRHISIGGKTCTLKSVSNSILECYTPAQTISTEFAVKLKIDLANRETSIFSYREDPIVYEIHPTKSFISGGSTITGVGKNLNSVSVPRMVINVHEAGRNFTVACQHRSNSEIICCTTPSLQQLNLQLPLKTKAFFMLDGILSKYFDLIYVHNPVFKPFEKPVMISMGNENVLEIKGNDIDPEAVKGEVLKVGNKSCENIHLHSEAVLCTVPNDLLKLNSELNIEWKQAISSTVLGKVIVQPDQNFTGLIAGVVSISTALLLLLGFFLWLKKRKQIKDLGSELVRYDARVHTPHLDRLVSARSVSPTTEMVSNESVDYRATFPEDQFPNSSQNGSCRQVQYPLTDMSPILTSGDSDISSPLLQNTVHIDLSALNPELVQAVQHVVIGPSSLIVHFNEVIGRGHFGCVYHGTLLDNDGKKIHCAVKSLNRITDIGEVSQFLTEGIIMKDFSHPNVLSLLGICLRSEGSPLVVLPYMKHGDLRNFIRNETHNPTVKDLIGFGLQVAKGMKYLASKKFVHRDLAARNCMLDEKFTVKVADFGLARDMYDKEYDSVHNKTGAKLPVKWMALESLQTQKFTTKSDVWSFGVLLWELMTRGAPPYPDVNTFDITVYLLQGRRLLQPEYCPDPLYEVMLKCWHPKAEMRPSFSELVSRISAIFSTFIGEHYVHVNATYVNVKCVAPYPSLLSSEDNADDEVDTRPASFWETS
Chain of Substance-P receptor (Homo sapiens) (P25103 whole entry): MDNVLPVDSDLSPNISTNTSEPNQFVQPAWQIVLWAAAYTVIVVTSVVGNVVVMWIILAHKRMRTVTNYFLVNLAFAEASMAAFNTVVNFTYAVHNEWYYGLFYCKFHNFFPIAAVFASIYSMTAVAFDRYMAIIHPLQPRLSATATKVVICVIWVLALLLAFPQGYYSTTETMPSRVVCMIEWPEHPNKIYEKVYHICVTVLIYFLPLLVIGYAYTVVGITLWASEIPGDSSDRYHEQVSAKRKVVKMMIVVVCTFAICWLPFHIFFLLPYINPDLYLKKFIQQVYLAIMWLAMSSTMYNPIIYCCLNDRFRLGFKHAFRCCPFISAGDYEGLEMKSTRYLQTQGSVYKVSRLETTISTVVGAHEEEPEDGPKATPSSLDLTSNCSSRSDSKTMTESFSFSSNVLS
Chain of Phosphatidylinositol 4-phosphate 5-kinase type-1 gamma (Homo sapiens) (O60331 whole entry): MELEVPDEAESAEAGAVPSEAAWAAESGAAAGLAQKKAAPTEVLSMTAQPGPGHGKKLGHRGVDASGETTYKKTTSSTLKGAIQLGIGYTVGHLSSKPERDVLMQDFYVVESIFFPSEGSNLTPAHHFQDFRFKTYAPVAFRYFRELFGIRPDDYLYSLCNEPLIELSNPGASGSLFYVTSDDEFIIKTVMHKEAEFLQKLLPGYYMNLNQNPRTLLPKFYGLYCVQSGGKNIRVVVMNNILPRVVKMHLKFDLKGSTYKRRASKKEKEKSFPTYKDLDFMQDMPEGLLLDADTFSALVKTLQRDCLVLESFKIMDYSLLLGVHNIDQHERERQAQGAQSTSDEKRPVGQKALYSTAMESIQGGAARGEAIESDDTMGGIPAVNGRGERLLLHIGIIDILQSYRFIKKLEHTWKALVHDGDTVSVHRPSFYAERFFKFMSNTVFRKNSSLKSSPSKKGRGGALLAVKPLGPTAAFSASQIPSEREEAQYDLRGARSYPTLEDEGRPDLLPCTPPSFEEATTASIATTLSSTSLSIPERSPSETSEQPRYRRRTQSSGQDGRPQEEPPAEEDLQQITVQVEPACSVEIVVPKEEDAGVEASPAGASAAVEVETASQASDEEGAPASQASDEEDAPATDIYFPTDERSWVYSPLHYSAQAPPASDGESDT
Chain of Adenosine receptor A2a (P29274 whole entry): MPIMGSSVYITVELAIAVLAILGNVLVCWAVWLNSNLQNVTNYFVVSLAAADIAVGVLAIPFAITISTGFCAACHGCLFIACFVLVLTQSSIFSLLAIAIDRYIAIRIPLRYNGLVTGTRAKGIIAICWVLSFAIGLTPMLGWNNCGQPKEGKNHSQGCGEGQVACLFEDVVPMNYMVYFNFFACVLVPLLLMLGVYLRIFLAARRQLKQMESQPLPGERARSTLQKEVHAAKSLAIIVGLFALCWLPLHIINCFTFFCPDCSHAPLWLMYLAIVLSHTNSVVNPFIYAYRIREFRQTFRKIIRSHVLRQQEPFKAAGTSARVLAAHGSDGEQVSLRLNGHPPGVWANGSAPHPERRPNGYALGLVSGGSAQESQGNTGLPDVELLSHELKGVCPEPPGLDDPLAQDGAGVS

SMILES: Cc1cc([C@@H](C)Nc2ccccc2C(=O)O)c2nc(N3CCOCC3)cc(=O)n2c1 [AZD-6482]
- % of control [1]: 78%

- % of control [2]: 72%
SMILES: CC(=O)c1cc(-c2ccccc2OCC2CC2)c2ncccn12

- % of control [3]: 107%
SMILES: C=CC(=O)Nc1cccc(C(=O)Nc2ccc(Nc3cc(-c4[nH]c(SC)nc4C)ccn3)cc2)c1

SMILES: CCC(=O)N1CCN(c2ccc(-n3c(=O)ccc4cnc5ccc(-c6cnc7ccccc7c6)cc5c43)cc2C(F)(F)F)CC1
- % of control [4]: 78%

SMILES: C=CC(=O)Nc1cc(-n2c(=O)ccc3cnc4ccc(-c5ccc(NS(C)(=O)=O)cc5)cc4c32)ccc1C
- % of control ([5]; at 1 µM): 93%
- % of control ([5]; at 10 µM): 100%

SMILES: O[C@H]1CC[C@H](Nc2ncc3nc(Nc4c(F)cc(F)cc4F)n([C@H]4CCOC4)c3n2)CC1
- % of control [6]: 100%

SMILES: CN(C)C(=O)Cn1cc(-c2ccc(-c3cncc4ccccc34)cc2)cn1
- % of control (Adenosine receptor A2a): 85%

- dTM [7]: -0.4 K
SMILES: CN(C(=O)c1cnn2cccnc12)c1cc2c(cc1N1CCOCC1)C(=O)N(C[C@@H](F)C(C)(C)O)C2

SMILES: CC(C)(O)[C@H](F)CN1Cc2cc(NC(=O)c3cnn4cccnc34)c(N3CCOCC3)cc2C1=O
- dTM [8]: 0 K
